Values of other authors, collected in patent US11918653B2, “Triglyceride otic formulations and uses thereof” (DOMPÉ FARMACEUTICI S.P.A., priority 2017, dated 2024).
Values belong to the molecule of their own block, whether it stands above or below them.

Tests used:
[1] = system: Meniere's disease symptoms; conditions: infusion into the scala tympani
[2] = molecular target: constitutively activated D136A mutant VP2 receptor (Homo sapiens, UniProt P30518, D136A)
[3] = after topical application
[4] = in vivo
[5] = system: TNF-α production in the LPS-induced MonoMac-6 cells; conditions: read-out: IC50 for inhibiting TNF-α production
[6] = system: rat arthritis model; conditions: 30 mg/kg
[7] = system: mouse collagen-induced arthritis model; conditions: 30 mg/kg dose
[8] = system: TNF-α production in the LPS-induced human PBMC cells; conditions: read-out: IC50 for inhibiting TNF-α production
[9] = system: tinnitus; conditions: administered by IV
[10] = molecular target: T1, lymphotoxin (TNF-β) (Homo sapiens, UniProt P01374)
T1 sequence (P01374 35-205): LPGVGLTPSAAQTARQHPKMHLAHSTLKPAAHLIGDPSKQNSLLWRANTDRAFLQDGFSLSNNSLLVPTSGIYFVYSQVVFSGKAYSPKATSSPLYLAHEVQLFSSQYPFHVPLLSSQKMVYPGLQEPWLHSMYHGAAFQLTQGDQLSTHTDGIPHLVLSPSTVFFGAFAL

[11] = system: TNF-α; conditions: LPS-challenged mice

- behaviour at D136A mutant VP2 receptor [2]: inverse agonist
Molecule: Cc1ccccc1C(=O)Nc1ccc(C(=O)N2CCCC(N(C)C)c3ccccc32)cc1.Cl (racemic) [OPC-31260, (±)-5-dimethylamino-1-(4-[2-methylbenzoylamino]benzoyl)-2,3,4,5-tetrahydro-1H-benzazepin hydrochloride]
- Meniere's disease symptoms [1]: marked reduction of Meniere's disease symptoms

- bioavailability [3]: less than 0.5%
Molecule: C=CC[C@@H]1/C=C(\C)C[C@H](C)C[C@H](OC)[C@H]2O[C@@](O)(C(=O)C(=O)N3CCCC[C@H]3C(=O)O[C@H](/C(C)=C/[C@@H]3CC[C@@H](O)[C@H](OC)C3)[C@H](C)[C@@H](O)CC1=O)[C@H](C)C[C@@H]2OC (relative stereo) [tacrolimus, [3S-[3R*[E(1S*,3S*,4S*)], 4S*,5R*,8S*,9E,12R*,14R*,15S*,16R*,18S*,19S*,26aR*]]-5,6,8,11,12,13,14,15,16,17,18,19,24,25,26,26a-hexadecahydro-5,19-dihydroxy-3-[2-(4-hydroxy-3-methoxycyclohexyl)-1-methylethenyl]-14,16-dimethoxy-4,10,12,18-tetramethyl-8-(2-propenyl)-15,19-epoxy-3H-pyrido[2,1-39c][1,4]oxaazacyclotricosine-1,7,20,21(4H,23H)-tetrone monohydrate]

- IC50 [5]: 34 nM
Molecule: CC(C)C[C@@H](C(=O)N[C@@H](CCCN/C(N)=N/[N+](=O)[O-])C(=O)Nc1nccs1)[C@H](C(C)C)N(O)C=O [Nitroarginine analog A]
- oral activity [4]: lacks oral activity

Molecule: etanercept
- patients experiencing injection site reactions (systemically treated): over one-third of patients

Molecule: COc1cccc2nc(-c3cccs3)nc(NN3C(=O)C=C(C)C3=O)c12 [SPC-839]
- paw edema [6]: reduces paw edema

Molecule: Cc1ccc2nc(NCCN)c3ncc(C)n3c2c1 [BMS-345541]
- severity of disease [7]: significantly reduced the severity of disease

Molecule: CC[C@H](C)[C@H](NC(=O)[C@H](CC(C)C)[C@H](C(C)C)N(O)C=O)C(=O)Nc1ccccn1 [GW3333]
- IC50 [8]: 970 nM

Molecule: CCOc1ccc2c(c1)C1(CCC(OCCN3CCOCC3)CC1)C(=O)N2S(=O)(=O)c1ccc(C(=O)NC(C)(C)C)cc1OC.O=C(O)/C=C/C(=O)O (centres unmarked) [SR-1211463, 1-(4-(N-tert-butylcarbamoyl)-2-methoxybenzenesulfonyl)-5-ethoxy-3-spiro-(4-(2-morpholinoethoxy)cyclohexane)indol-2-one fumarate]
- behaviour at D136A mutant VP2 receptor [2]: inverse agonist

Molecule: CCN(CC)CC(=O)Nc1c(C)cccc1C [Lidocaine]
- sufferers in whom noise associated with tinnitus is reduced or eliminated [9]: 60-80%

Molecule: Adalimumab
- binding or inactivation of lymphotoxin (TNF-β) [10]: does not bind or inactivate
- patients developing injection site reactions (erythema and/or itching, hemorrhage, pain and/or swelling) (systemic administration): 20%

Molecule: O=C(Nc1cc(Cl)cc2c1[nH]c1cnccc12)c1cccnc1 [PS-1145]
- production of TNF-α [11]: reduces the production of TNF-α
